Laboratory results: US9695155B2, “Herbicidal substituted pyrimidinyloxy benzene compounds” (E. I. DU PONT DE NEMOURS AND COMPANY, priority 2013, dated 2017)

Experiments:
barnyardgrass [1] = test: Test A preemergence; assay type: in vivo, Echinochloa crus-galli; conditions: for Plant response rating, Barnyardgrass: 125 g ai/ha
Outline: (§1)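 Compounds in non-phytotoxic solvent with surfactant applied as soil spray preemergence, or postemergence to plants 2-10 cm at one- to two-leaf stage, in loam/sand. After approximately 10 days in greenhouse, injury rated visually versus untreated controls, 0 (no effect) to 100 (complete control).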

large (Lg) crabgrass [2] = test: Test A preemergence; assay type: in vivo, Digitaria sanguinalis; conditions: for Plant response rating, Crabgrass, Large: 125 g ai/ha
Outline: as §1

giant foxtail [3] = test: Test A preemergence; assay type: in vivo, Setaria faberii; conditions: for Plant response rating, Foxtail, Giant: 125 g ai/ha
Outline: as §1

morningglory [4] = test: Test A preemergence; assay type: in vivo, Ipomoea spp.
Outline: as §1

pigweed [5] = test: Test A preemergence; assay type: in vivo, Amaranthus retroflexus
Outline: as §1

velvetleaf [6] = test: Test A preemergence; assay type: in vivo, Abutilon theophrasti
Outline: as §1

wheat [7] = test: Test A preemergence; assay type: in vivo, Triticum aestivum
Outline: as §1

corn [8] = test: Test A preemergence; assay type: in vivo, Zea mays; conditions: for Plant response rating, Corn: 125 g ai/ha
Outline: as §1

barnyardgrass [9] = test: Test A postemergence; assay type: in vivo, Echinochloa crus-galli
Outline: as §1

large (Lg) crabgrass [10] = test: Test A postemergence; assay type: in vivo, Digitaria sanguinalis
Outline: as §1

giant foxtail [11] = test: Test A postemergence; assay type: in vivo, Setaria faberii
Outline: as §1

morningglory [12] = test: Test A postemergence; assay type: in vivo, Ipomoea spp.
Outline: as §1

pigweed [13] = test: Test A postemergence; assay type: in vivo, Amaranthus retroflexus
Outline: as §1

velvetleaf [14] = test: Test A postemergence; assay type: in vivo, Abutilon theophrasti
Outline: as §1

wheat [15] = test: Test A postemergence; assay type: in vivo, Triticum aestivum
Outline: as §1

corn [16] = test: Test A postemergence; assay type: in vivo, Zea mays
Outline: as §1

rice = test: Test B flooded paddy test; assay type: in vivo, Oryza sativa; conditions: Flood, 250 g ai/ha; 0 to 100 scale where 0 is no effect and 100 is complete control
Outline: (§2)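 Evaluation is visual, against untreated controls, 13 to 15 days after treatment. Before treatment, plants reached the 2-leaf stage; pots were then flooded 3 cm deep, compound was added to the water, and that level was maintained. Ratings run 0 to 100, with 100 meaning complete control.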

sedge, umbrella = test: Test B flooded paddy test; assay type: in vivo, Cyperus difformis; conditions: Flood, 250 g ai/ha; 0 to 100 scale where 0 is no effect and 100 is complete control
Outline: as §2

Heteranthera limosa = test: Test B flooded paddy test; assay type: in vivo; conditions: Flood, 250 g ai/ha; 0 to 100 scale where 0 is no effect and 100 is complete control
Outline: as §2

barnyardgrass [17] = test: Test B flooded paddy test; assay type: in vivo, Echinochloa crus-galli; conditions: Flood, 250 g ai/ha; 0 to 100 scale where 0 is no effect and 100 is complete control
Outline: as §2

[18] = 0 to 100 scale where 0 is no effect and 100 is complete control
[19] = 500 g ai/ha, 0 to 100 scale where 0 is no effect and 100 is complete control
[20] = 125 g ai/ha, 0 to 100 scale where 0 is no effect and 100 is complete control
[21] = 500 g ai/ha, 0 to 100 scale, 0 no effect, 100 complete control, approx. 10 days
[22] = 1000 g ai/ha, 0 to 100 scale, 0 no effect, 100 complete control, approx. 10 days
[23] = 1000 g ai/ha, 0 to 100 scale, 0 no effect, 100 complete control

With `O=Cc1cccc(Oc2ncc(Cl)cn2)c1-n1cc(C(F)(F)F)cn1` [Compound 171] the “Plant response rating, Barnyardgrass” value (barnyardgrass [1]; [18]) was 20, the “Barnyardgrass plant response rating” value (barnyardgrass [1]; [19]) was 60 and the “Plant response rating, Crabgrass, Large” value (large (Lg) crabgrass [2]; [18]) was 0. For the same compound, the “Crabgrass, Large plant response rating” value (large (Lg) crabgrass [2]; [19]) was 0, the “Plant response rating, Foxtail, Giant” value (giant foxtail [3]; [18]) was 0 and the “Foxtail, Giant plant response rating” value (giant foxtail [3]; [19]) was 0. The “Morningglory plant response rating (0 to 100 scale)” value (morningglory [4]; 125 g ai/ha) was 0, the “Morningglory plant response rating” value (morningglory [4]; [19]) was 0 and the “Pigweed plant response rating (0 to 100 scale)” value (pigweed [5]; 125 g ai/ha) was 90. The “Pigweed plant response rating” value (pigweed [5]; [19]) was 100, the “Velvetleaf plant response rating (0 to 100 scale)” value (velvetleaf [6]; 125 g ai/ha) was 30 and the “Velvetleaf plant response rating” value (velvetleaf [6]; [19]) was 70. For the same compound, the “Wheat plant response rating (0 to 100 scale)” value (wheat [7]; 125 g ai/ha) was 0, the “Wheat plant response rating” value (wheat [7]; [19]) was 0 and the “Plant response rating, Corn” value (corn [8]; [18]) was 0. The “Corn plant response rating” value (corn [8]; [19]) was 0, the “Barnyardgrass plant response rating” value (barnyardgrass [9]; [20]) was 0 and the “Plant response rating, Barnyardgrass” value (barnyardgrass [9]; [19]) was 0. The “Crabgrass, Large plant response rating” value (large (Lg) crabgrass [10]; [20]) was 0, the “Plant response rating, Crabgrass, Large” value (large (Lg) crabgrass [10]; [19]) was 0 and the “Foxtail, Giant plant response rating” value (giant foxtail [11]; [20]) was 0. For the same compound, the “Plant response rating, Foxtail, Giant” value (giant foxtail [11]; [19]) was 0, the “Morningglory plant response rating” value (morningglory [12]; [20]) was 0 and the “Plant response rating, Morningglory” value (morningglory [12]; [19]) was 0. For the same compound, the “Pigweed plant response rating” value (pigweed [13]; [20]) was 100, the “Plant response rating, Pigweed” value (pigweed [13]; [19]) was 100 and the “Velvetleaf plant response rating” value (velvetleaf [14]; [20]) was 40. For the same compound, the “Plant response rating, Velvetleaf” value (velvetleaf [14]; [19]) was 70, the “Wheat plant response rating” value (wheat [15]; [20]) was 0 and the “Plant response rating, Wheat” value (wheat [15]; [19]) was 0. For the same compound, the “Corn plant response rating” value (corn [16]; [20]) was 0, the “Plant response rating, Corn” value (corn [16]; [19]) was 0 and the “Plant response rating, Rice” value (rice) was 0. The “Plant response rating, Sedge, Umbrella” value (sedge, umbrella) was 0, the “Plant response rating, Ducksalad” value (Heteranthera limosa) was 0 and the “Plant response rating, Barnyardgrass” value (barnyardgrass [17]) was 0.
With `O=Cc1cccc(Oc2ncc(F)cn2)c1-n1cc(Cl)cn1` [Compound 93] the “Plant response rating, Barnyardgrass” value (barnyardgrass [1]; [18]) was 0, the “Barnyardgrass plant response rating” value (barnyardgrass [1]; [21]) was 0 and the “Plant response rating, Crabgrass, Large” value (large (Lg) crabgrass [2]; [18]) was 0. The “Crabgrass, Large plant response rating” value (large (Lg) crabgrass [2]; [21]) was 30, the “Plant response rating, Foxtail, Giant” value (giant foxtail [3]; [18]) was 0 and the “Foxtail, Giant plant response rating” value (giant foxtail [3]; [21]) was 0. For the same compound, the “Plant response rating, Morningglory” value (morningglory [4]; [20]) was 0, the “Morningglory plant response rating” value (morningglory [4]; [21]) was 0 and the “Plant response rating, Pigweed” value (pigweed [5]; [20]) was 0. For the same compound, the “Pigweed plant response rating” value (pigweed [5]; [21]) was 30, the “Plant response rating, Velvetleaf” value (velvetleaf [6]; [20]) was 0 and the “Plant response rating, Wheat” value (wheat [7]; [20]) was 0. For the same compound, the “Plant response rating, Corn” value (corn [8]; [18]) was 0, the “Corn plant response rating” value (corn [8]; [21]) was 0 and the “Plant response rating, Barnyardgrass” value (barnyardgrass [9]; [20]) was 0. For the same compound, the “Plant response rating, Barnyardgrass” value (barnyardgrass [9]; [19]) was 0, the “Plant response rating, Crabgrass, Large” value (large (Lg) crabgrass [10]; [20]) was 0 and the “Plant response rating, Crabgrass, Large” value (large (Lg) crabgrass [10]; [19]) was 0. The “Plant response rating, Foxtail, Giant” value (giant foxtail [11]; [20]) was 0, the “Plant response rating, Foxtail, Giant” value (giant foxtail [11]; [19]) was 0 and the “Plant response rating, Morningglory” value (morningglory [12]; [20]) was 0. The “Plant response rating, Morningglory” value (morningglory [12]; [19]) was 0, the “Plant response rating, Pigweed” value (pigweed [13]; [20]) was 0 and the “Plant response rating, Pigweed” value (pigweed [13]; [19]) was 0. The “Plant response rating, Velvetleaf” value (velvetleaf [14]; [20]) was 0, the “Plant response rating, Velvetleaf” value (velvetleaf [14]; [19]) was 0 and the “Plant response rating, Wheat” value (wheat [15]; [20]) was 0. For the same compound, the “Plant response rating, Wheat” value (wheat [15]; [19]) was 0, the “Plant response rating, Corn” value (corn [16]; [20]) was 0 and the “Plant response rating, Corn” value (corn [16]; [19]) was 0. For the same compound, the “Plant response rating, Rice” value (rice) was 0, the “Plant response rating, Sedge, Umbrella” value (sedge, umbrella) was 0 and the “Plant response rating, Ducksalad” value (Heteranthera limosa) was 0. For the same compound, the “Plant response rating, Barnyardgrass” value (barnyardgrass [17]) was 0.
In the case of `Clc1cnc(Oc2ccccc2-n2ccnn2)nc1` [Compound 217], the “Barnyardgrass plant response rating” value (barnyardgrass [1]; [22]) was 70, the “Crabgrass, Large plant response rating” value (large (Lg) crabgrass [2]; [22]) was 100 and the “Foxtail, Giant plant response rating” value (giant foxtail [3]; [22]) was 90. The “Morningglory plant response rating” value (morningglory [4]; [22]) was 40, the “Pigweed plant response rating” value (pigweed [5]; [22]) was 100 and the “Velvetleaf plant response rating” value (velvetleaf [6]; [22]) was 100. For the same compound, the “Wheat plant response rating” value (wheat [7]; [22]) was 0, the “Corn plant response rating” value (corn [8]; [22]) was 0 and the “Plant response rating, Barnyardgrass” value (barnyardgrass [9]; [23]) was 30. For the same compound, the “Plant response rating, Crabgrass, Large” value (large (Lg) crabgrass [10]; [23]) was 60, the “Plant response rating, Foxtail, Giant” value (giant foxtail [11]; [23]) was 50 and the “Plant response rating, Morningglory” value (morningglory [12]; [23]) was 90. The “Plant response rating, Pigweed” value (pigweed [13]; [23]) was 100, the “Plant response rating, Velvetleaf” value (velvetleaf [14]; [23]) was 100 and the “Plant response rating, Wheat” value (wheat [15]; [23]) was 20. The “Plant response rating, Corn” value (corn [16]; [23]) was 0, the “Plant response rating, Rice” value (rice) was 0 and the “Plant response rating, Sedge, Umbrella” value (sedge, umbrella) was 0. For the same compound, the “Plant response rating, Ducksalad” value (Heteranthera limosa) was 0 and the “Plant response rating, Barnyardgrass” value (barnyardgrass [17]) was 0.
